From US20240158377A1, “NOVEL SALT FORMS OF A 4H-PYRAN-4-ONE STRUCTURED CYP11A1 INHIBITOR” (Orion Corporation, priority 2021, published 2024)
Counter-ions that a name gives are not always drawn.

Key:
Type in all cases: physicochemical
[1] = Weight loss of the salts during heating by thermogravimetric analysis (TGA); conditions: for Weight loss: TGA, heating rate 10° C./min, open pan
Procedure: Weight loss of the salts during heating was determined by thermogravimetric analysis (TGA) thermograms collected on TGA equipment (TA Instruments). Heating rate 10° C./min, 25-300° C., open pan.
Weight loss of each salt of compound (I) during heating was determined by thermogravimetric analysis (TGA) thermograms collected on TGA equipment (TA Instruments). Heating rate 10° C./min, 25-300° C., open pan.

[2] = Chemical stability: accelerated stability study of pressed tablets, degradation product A, prediction with ASAPprime software; conditions: summary statement
Procedure: The degradation rate of various salts of compound (I) was determined by measuring the amount of shelf-life determining degradation product 2-[(5-{[1-(methanesulfonyl)piperidin-4-yl]methoxy}-4-oxo-4H-pyran-2-yl)methyl]-2,3-dihydro-1H-isoindol-1 -one (degradation product A) from an accelerated stability study wherein samples were stored at various different temperature and relative humidity conditions. Each sample consisted of a pressed tablet containing a constant amount of the tested salt together with conventional excipients. The predicted increase (Δ %) of the degradation product A after 5 years was calculated with ASAPprime® software using the following parameters: • Bottle volume and material: 100 ml (HDPE HIS) • Desiccant: Silica (1 g) • Tablet amount: 60 • Conditions: 25° C./60% RH

[3] = Weight loss of the salts during heating by thermogravimetric analysis (TGA); conditions: heating rate 10° C./min, 30-250° C., open pan, weight loss over 30-200° C.

For `CS(=O)(=O)N1CCC(COc2coc(CN3Cc4ccccc4C3)cc2=O)CC1` [Benzenesulfonic acid salt, 2-(isoindolin-2-ylmethyl)-5-((1-(methylsulfonyl)piperidin-4-yl)methoxy)-4H-pyran-4-one], which Weight loss ([1]; weight loss over 25-220° C.) is on record?
The Weight loss was 0.3%.

Which Weight loss ([1]; weight loss over 25-175° C.) does the source give for `CS(=O)(=O)N1CCC(COc2coc(CN3Cc4ccccc4C3)cc2=O)CC1` [Oxalic acid salt (form 1), 2-(isoindolin-2-ylmethyl)-5-((1-(methylsulfonyl)piperidin-4-yl)methoxy)-4H-pyran-4-one] here?
The Weight loss was 0.4%.

Which Weight loss ([1]; weight loss over 25-220° C.) does the source give for `O=S(=O)(O)c1cccc2c(S(=O)(=O)O)cccc12` [1,5-Naphthalenedisulfonic acid] here?
Its Weight loss is 0.3%.

Which Weight loss ([1]; weight loss over 25-190° C.) does the source give for `CS(=O)(=O)N1CCC(COc2coc(CN3Cc4ccccc4C3)cc2=O)CC1` [Ethanesulfonic acid salt, 2-(isoindolin-2-ylmethyl)-5-((1-(methylsulfonyl)piperidin-4-yl)methoxy)-4H-pyran-4-one] here?
Its Weight loss is less than 0.3%.

For `CS(=O)(=O)N1CCC(COc2coc(CN3Cc4ccccc4C3)cc2=O)CC1` [Methanesulfonic acid salt, 2-(isoindolin-2-ylmethyl)-5-((1-(methylsulfonyl)piperidin-4-yl)methoxy)-4H-pyran-4-one], which Weight loss ([1]; weight loss over 25-75° C.) is on record?
Its Weight loss is 5%.

Which Weight loss ([1]; weight loss over 25-100° C.) does the source give for `CS(=O)(=O)N1CCC(COc2coc(CN3Cc4ccccc4C3)cc2=O)CC1` [1,2-Ethanedisulfonic acid salt, 2-(isoindolin-2-ylmethyl)-5-((1-(methylsulfonyl)piperidin-4-yl)methoxy)-4H-pyran-4-one] here?
Its Weight loss is 9.9%.

For `CS(=O)(=O)N1CCC(COc2coc(CN3Cc4ccccc4C3)cc2=O)CC1` [Hydrochloric acid salt (form 3), 2-(isoindolin-2-ylmethyl)-5-((1-(methylsulfonyl)piperidin-4-yl)methoxy)-4H-pyran-4-one], which Weight loss ([1]; weight loss over 25-190° C.) is on record?
The Weight loss was 0.5%.

Which Weight loss ([1]; weight loss over 25-100° C.) does the source give for `CS(=O)(=O)N1CCC(COc2coc(CN3Cc4ccccc4C3)cc2=O)CC1` [Sulfuric acid salt (form 2), 2-(isoindolin-2-ylmethyl)-5-((1-(methylsulfonyl)piperidin-4-yl)methoxy)-4H-pyran-4-one] here?
The Weight loss was 8%.

With `CS(=O)(=O)N1CCC(COc2coc(CN3Cc4ccccc4C3)cc2=O)CC1` [Maleic acid salt (form 3), 2-(isoindolin-2-ylmethyl)-5-((1-(methylsulfonyl)piperidin-4-yl)methoxy)-4H-pyran-4-one] as the compound, how does the Weight loss ([1]; weight loss over 25-120° C.) read?
Its Weight loss is 3.2%.

Which “weight loss during heating (in words)” value ([1]; crystalline salt, summary statement) does the source give for `CS(=O)(=O)N1CCC(COc2coc(CN3Cc4ccccc4C3)cc2=O)CC1` [p-toluenesulfonic acid salt, 2-(isoindolin-2-ylmethyl)-5-((1-(methylsulfonyl)piperidin-4-yl)methoxy)-4H-pyran-4-one] here?
The value was “low weight loss during heating”.

What about the “solid-state stability in pharmaceutical dosage forms such as tablets (in words)” value [2] of the same compound?
Its value is “excellent sold-state stability”.

And the Weight loss [3]?
The Weight loss was 0.2%.

Which Weight loss ([1]; weight loss over 25-220° C.) does the source give for `CS(=O)(=O)N1CCC(COc2coc(CN3Cc4ccccc4C3)cc2=O)CC1` [hydrobromic acid salt, 2-(isoindolin-2-ylmethyl)-5-((1-(methylsulfonyl)piperidin-4-yl)methoxy)-4H-pyran-4-one] here?
Its Weight loss is 0.1%.

Which Weight loss ([1]; weight loss over 25-225° C.) does the source give for `O=S(=O)(O)c1ccc2ccccc2c1` [2-Naphthalenesulphonic acid] here?
The Weight loss was less than 0.1%.

Which Weight loss ([1]; weight loss over 25-205° C.) does the source give for `CS(=O)(=O)N1CCC(COc2coc(CN3Cc4ccccc4C3)cc2=O)CC1` [Nitric acid salt, 2-(isoindolin-2-ylmethyl)-5-((1-(methylsulfonyl)piperidin-4-yl)methoxy)-4H-pyran-4-one] here?
The Weight loss was 0.9%.
